For three compounds, IC50, Ratio IC50 and Activity results are on record in ChEMBL document CHEMBL4393732, “Influence of nisin hinge-region variants on lantibiotic immunity and resistance proteins” (Bioorg Med Chem, 2019).

pIC50: −log10 of the molar value. The source made the active and inactive calls. The rule behind the calls is not given here.

A short description of test [1]: Inhibition of Lactococcus lactis Nis1 harboring in Lactococcus lactis NZ9000 assessed as decrease in Nis1 induced resistance measured as increase in growth inhibition incubated for 5 hrs by optical density based plate reader assay.
A short description of test [2]: Resistance ratio of IC50 for inhibition of Streptococcus agalactiae COH1 NsrFP transfected in Lactococcus lactis NZ9000 assessed as decrease in NsrFP induced resistance measured as increase in growth inhibition to IC50 for growth inhibition of nisin-sensitive Lactococcus lactis NZ9000Cm incubated for 5 hrs by optical density based plate reader assay.
Test [3] deals with Lactococcus lactis. Put plainly: Induction of pore formation in Lactococcus lactis NZ9000Cm assessed as increase in florescence intensity at 3 times antibacterial IC50 measured after 200 secs by sytox green-based fluorescence assay. In kind it is functional, organism-based.
Test [4] is described as follows: Resistance ratio of IC50 for inhibition of Lactococcus lactis ATP-binding cassette transporter NisFEG harboring in Lactococcus lactis NZ9000 assessed as decrease in NisFEG induced resistance measured as increase in growth inhibition to IC50 for growth inhibition of nisin-sensitive Lactococcus lactis NZ9000Cm incubated for 5 hrs by optical density based plate reader assay.

Test [5] is described as follows: Inhibition of Lactococcus lactis ATP-binding cassette transporter NisFEG harboring in Lactococcus lactis NZ9000 assessed as decrease in NisFEG induced resistance measured as increase in growth inhibition incubated for 5 hrs by optical density based plate reader assay.
Test [6] is described as follows: Resistance ratio of IC50 for Inhibition of Lactococcus lactis Nis1 harboring in Lactococcus lactis NZ9000 assessed as decrease in Nis1 induced resistance measured as increase in growth inhibition to IC50 for growth inhibition of nisin-sensitive Lactococcus lactis NZ9000Cm incubated for 5 hrs by optical density based plate reader assay.
For test [7], the system named is Lactococcus lactis. Put plainly: Growth inhibition of nisin-sensitive Lactococcus lactis NZ9000Cm incubated for 5 hrs by optical density based plate reader assay. In kind it is functional, organism-based.
Test [8] can be described thus: Inhibition of Streptococcus agalactiae COH1 NSR transfected in Lactococcus lactis NZ9000 assessed as decrease in NSR-induced resistance by measuring increase in growth inhibition incubated for 5 hrs by optical density based plate reader assay.
Test [9] in a line: Resistance ratio of IC50 for inhibition of Streptococcus agalactiae COH1 NSR transfected in Lactococcus lactis NZ9000 assessed as decrease in NSR induced resistance measured as increase in growth inhibition to IC50 for growth inhibition of nisin-sensitive Lactococcus lactis NZ9000Cm incubated for 5 hrs by optical density based plate reader assay.
A short description of test [10]: Inhibition of Streptococcus agalactiae COH1 NsrFP transfected in Lactococcus lactis NZ9000 assessed as decrease in NsrFP-induced resistance by measuring increase in growth inhibition incubated for 5 hrs by optical density based plate reader assay.
Test [11] has as its system Lactococcus lactis. Kind of test: Induction of pore formation in Lactococcus lactis NZ9000Cm assessed as increase in florescence intensity at 3 times antibacterial IC50 measured after 200 secs by sytox green-based fluorescence assay relative to control. In kind it is functional.

The pIC50 is −log10 of the IC50, conventionally taken in molar units. In the case of `C=C(NC(=O)[C@@H](NC(=O)[C@H](Cc1cnc[nH]1)NC(=O)[C@@H](NC(=O)[C@H](CO)NC(=O)[C@@H]1CS[C@@H](C)[C@@H]2NC(=O)[C@H](C)NC(=O)[C@@H](NC(=O)[C@H](CC(N)=O)NC(=O)[C@@H]3CS[C@@H](C)[C@H](NC(=O)[C@H](CCCCN)NC(=O)[C@@H]4CS[C@@H](C)[C@H](NC(=O)[C@@H]5CSC[C@H](NC(=O)/C(=C/C)NC(=O)[C@@H](N)[C@@H](C)CC)C(=O)N[C@@H]([C@@H](C)CC)C(=O)NC(=C)C(=O)N[C@@H](CC(C)C)C(=O)N5)C(=O)N5CCC[C@H]5C(=O)NCC(=O)N4)C(=O)NCC(=O)N[C@@H](C)C(=O)N[C@@H](CC(C)C)C(=O)N[C@@H](CCSC)C(=O)NCC(=O)N3)[C@H](C)SC[C@H](NC2=O)C(=O)N[C@@H](Cc2cnc[nH]2)C(=O)N1)[C@@H](C)CC)C(C)C)C(=O)N[C@@H](CCCCN)C(=O)O`, the pIC50 is 6.96 in [1]; 7.14 in [5]; 7.36 in the test with Lactococcus lactis [7]; 6.66 in [8]; 6.67 in test [10]. Further, the Ratio IC50 in test [2] worked out at 4.9; in [4] it was 1.66; in test [6], 2.5; in test [9], 5.09. Also, the outcome in the test on Lactococcus lactis [3] was inactive.

On to `C=C(NC(=O)[C@@H](NC(=O)[C@H](Cc1cnc[nH]1)NC(=O)[C@@H](NC(=O)[C@H](CO)NC(=O)[C@@H]1CS[C@@H](C)[C@@H]2NC(=O)[C@H](C)NC(=O)[C@@H](NC(=O)[C@H](CCCCN)NC(=O)[C@H](CCSC)NC(=O)[C@@H](NC(=O)[C@@H](NC(=O)[C@H](CC(N)=O)NC(=O)[C@@H]3CS[C@@H](C)[C@H](NC(=O)[C@H](CCCCN)NC(=O)[C@@H]4CS[C@@H](C)[C@H](NC(=O)[C@@H]5CSC[C@H](NC(=O)/C(=C/C)NC(=O)[C@@H](N)[C@@H](C)CC)C(=O)N[C@@H]([C@@H](C)CC)C(=O)NC(=C)C(=O)N[C@@H](CC(C)C)C(=O)N5)C(=O)N5CCC[C@H]5C(=O)NCC(=O)N4)C(=O)NCC(=O)N[C@@H](C)C(=O)N[C@@H](CC(C)C)C(=O)N[C@@H](CCSC)C(=O)NCC(=O)N3)[C@@H](C)CC)C(C)C)[C@H](C)SC[C@H](NC2=O)C(=O)N[C@@H](Cc2cnc[nH]2)C(=O)N1)[C@@H](C)CC)C(C)C)C(=O)N[C@@H](CCCCN)C(=O)O`, for which the pIC50 is 7.11 in test [1]; 6.97 in [5]; 8.09 with Lactococcus lactis [7]; 6.99 in [8]; 6.92 in test [10]. For the same compound, the Ratio IC50 in test [2] came out at 14.8; in test [4], 13.1; in test [6], 9.46; in [9], 12.4. In addition, in the test on Lactococcus lactis [11], the Activity worked out at 15%.

In the case of `C=C(NC(=O)[C@@H](NC(=O)[C@H](Cc1cnc[nH]1)NC(=O)[C@@H](NC(=O)[C@H](CO)NC(=O)[C@@H]1CS[C@@H](C)[C@@H]2NC(=O)[C@H](C)NC(=O)[C@@H](NC(=O)[C@@H](NC(=O)[C@@H](NC(=O)[C@H](CCCCN)NC(=O)[C@H](CCSC)NC(=O)[C@H](CC(N)=O)NC(=O)[C@@H]3CS[C@@H](C)[C@H](NC(=O)[C@H](CCCCN)NC(=O)[C@@H]4CS[C@@H](C)[C@H](NC(=O)[C@@H]5CSC[C@H](NC(=O)/C(=C/C)NC(=O)[C@@H](N)[C@@H](C)CC)C(=O)N[C@@H]([C@@H](C)CC)C(=O)NC(=C)C(=O)N[C@@H](CC(C)C)C(=O)N5)C(=O)N5CCC[C@H]5C(=O)NCC(=O)N4)C(=O)NCC(=O)N[C@@H](C)C(=O)N[C@@H](CC(C)C)C(=O)N[C@@H](CCSC)C(=O)NCC(=O)N3)[C@@H](C)CC)C(C)C)[C@H](C)SC[C@H](NC2=O)C(=O)N[C@@H](Cc2cnc[nH]2)C(=O)N1)[C@@H](C)CC)C(C)C)C(=O)N[C@@H](CCCCN)C(=O)O`, the pIC50 was 7.14 in test [1]; 7.43 in [5]; 7.65 in the test with Lactococcus lactis [7]; 7.19 in test [8]; 7.35 in [10]. For the same compound, the Ratio IC50 came to 1.99 in [2], 1.66 in test [4], 3.29 in test [6] and 2.91 in test [9]. In addition, in the test on Lactococcus lactis [3], the result was Active.
